The numbers were not newly measured in US20210189389A1, “METHODS OF MODULATING ANK1” (SOCIETE DES PRODUITS NESTLE S.A., priority 2017, published 2021), which cites them from elsewhere.

The series deals with ANK1. Conditions: effect on ANK1 expression, from Comparative Toxicogenomics Database and cited reference.

Turning to `CC(=O)Nc1ccc(O)cc1` [Acetaminophen], the “Interaction Actions” value is reported as “affects expression”.

As for `CCCCc1oc2ccccc2c1C(=O)c1cc(I)c(OCCN(CC)CC)c(I)c1` [Amiodarone], the “Interaction Actions” value is “affects expression”.

For the compound `c1ccc2c(c1)cc1ccc3cccc4ccc2c1c34` [Benzo(a)pyrene], the “Interaction Actions” value is “decreases expression”.

For the compound `NC(=O)N1c2ccccc2C=Cc2ccccc21` [Carbamazepine], the “Interaction Actions” value was “affects expression”.

As to `CN(C)CCCN1c2ccccc2Sc2ccc(Cl)cc21` [Chlorpromazine], the “Interaction Actions” value is given as “affects expression”.

Consider `ClC1=C(Cl)[C@]2(Cl)[C@@H]3[C@@H]4C[C@@H]([C@H]5O[C@@H]45)[C@@H]3[C@@]1(Cl)C2(Cl)Cl` [Dieldrin], for which the “Interaction Actions” value is on record as “decreases expression”.

As to `CCCc1cc(=O)[nH]c(=S)[nH]1` [Propylthiouracil], the “Interaction Actions” value is recorded as “decreases expression”.

In the case of `CC/C(=C(\c1ccccc1)c1ccc(OCCN(C)C)cc1)c1ccccc1` [Tamoxifen], the “Interaction Actions” value is given as “affects expression”.

For `CC(=N)S` [Thioacetamide], the “Interaction Actions” value was “affects expression”.

With `CC[C@@]1(O)C(=O)OCc2c1cc1n(c2=O)Cc2cc3c(CN(C)C)c(O)ccc3nc2-1` [Topotecan], the “Interaction Actions” value is “decreases expression”.

As to `CCCC(CCC)C(=O)O` [Valproic Acid], the “Interaction Actions” value is “affects expression”.

With `Brc1c(Br)c(Br)c(Oc2c(Br)c(Br)c(Br)c(Br)c2Br)c(Br)c1Br` [decabromobiphenyl ether], the “Interaction Actions” value is on record as “decreases expression”.

Turning to `O=C1[O][Pt]2([NH][C@@H]3CCCC[C@H]3[NH]2)[O]C1=O` [oxaliplatin], the “Interaction Actions” value is on record as “decreases expression”.

Take Gentamicins: the “Interaction Actions” value is recorded as “decreases expression”.
